Where a name gives a salt, the structure may show the parent alone.
Experiments:
acetylcholinesterase = target: T1, acetylcholinesterase (Rattus norvegicus, UniProt P37136); assay: biochemical; settings: rat brain homogenate as enzyme source; acetylthiocholine substrate, DTNB, absorbance at 412 nm; read-out: IC50 (50% inhibitory concentration on acetylcholinesterase)
T1 construct: Using a rat brain homogenate as a source of acetylcholinesterase; from tissue; host or cells: rat brain homogenate
T1 sequence (P37136 32-614): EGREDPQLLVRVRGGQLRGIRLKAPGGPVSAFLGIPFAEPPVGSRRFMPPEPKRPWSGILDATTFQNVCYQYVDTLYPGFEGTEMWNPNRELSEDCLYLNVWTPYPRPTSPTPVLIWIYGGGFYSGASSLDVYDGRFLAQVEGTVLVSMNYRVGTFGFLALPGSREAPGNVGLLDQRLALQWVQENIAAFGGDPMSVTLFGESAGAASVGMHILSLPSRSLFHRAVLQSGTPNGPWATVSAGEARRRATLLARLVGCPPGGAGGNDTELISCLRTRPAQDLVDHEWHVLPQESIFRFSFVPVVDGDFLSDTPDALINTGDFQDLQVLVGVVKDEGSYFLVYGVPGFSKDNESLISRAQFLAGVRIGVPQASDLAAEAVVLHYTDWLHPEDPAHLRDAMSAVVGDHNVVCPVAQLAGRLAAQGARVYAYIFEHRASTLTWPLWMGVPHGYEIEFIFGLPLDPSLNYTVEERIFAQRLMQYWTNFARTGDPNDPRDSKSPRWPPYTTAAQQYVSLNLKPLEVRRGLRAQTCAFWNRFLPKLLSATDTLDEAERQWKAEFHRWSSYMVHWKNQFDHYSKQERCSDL
Procedure: Inhibitory effect on acetylcholinesterase in vitro
Using a rat brain homogenate as a source of acetylcholinesterase, the esterase activity was determined in accordance with the method of Ellman et al^1). Acethylthiocholine (as a substrate), a test compound and DTNB (5,5′-dithiobis(2-nitrobenzoic acid)) were added to the […] brain homogenate, and then incubated. Then, the resulting yellow product produced by the reaction of the resulting thiocholine with DTNB was determined for the change in absorbanceat 412 nm, to determine the acethylcholinesterase activity.
^1); Ellman. G. L., Courtney, K. D., Andres, V. and Featherstone, R. M., (1961), Biochem. Pharmacol., 7, 88-95.
The inhibitory effect of each test compound on acethylcholinesterase was determined in terms of 50% inhibitory concentration (IC50).
Each of the compounds was dissolved in physiological saline for use as a test sample.

Structure (SMILES) | melting point | IC50 (acetylcholinesterase)
COc1cc2c(cc1OC)C(=O)C(F)(CC1CCN(Cc3ccccn3)CC1)C2 (stereo not drawn) (as salt: hydrochloride) | 177 to 180 °C | –
COc1cc2c(cc1OC)C(=O)C(F)(CC1CCN(CC3OCCO3)CC1)C2 (stereo not drawn) (as salt: hydrochloride) | 143 to 145 °C | –
COc1cc2c(cc1OC)C(=O)C(F)(CC1CCN(Cc3cccc(C#N)c3)CC1)C2 (stereo not drawn) (as salt: hydrochloride) | 139 to 141 °C | –
CCOc1cc2c(cc1OCC)C(=O)C(F)(CC1CCN(Cc3ccccc3)CC1)C2 (stereo not drawn) [Example 1, 1-Benezyl-4-[(5,6-diethoxy-2-flouro-1-indanon)-2-yl]methylpiperidine Hydrochloride] | – | 0.38 nM
COc1cc2c(cc1OC)C(=O)C(F)(CC1CCN(Cc3cccc(F)c3)CC1)C2 (stereo not drawn) [Example 4, 4-[(5,6-Dimethoxy-2-flouro-indanon)-2-yl]methyl-1-(3-flourobenzyl)piperidine Hydrochloride] | – | 0.47 nM
COc1cc2c(cc1OC)C(=O)C(F)(CC1CCN(Cc3cccc(C)c3)CC1)C2 (stereo not drawn) [Example 5, 4-[(5,6-Dimethoxy-2-flouro-1-indanon)-2-yl]methyl-1-(3-methylbenzyl)piperidine Hydrochoride] | – | 0.82 nM
COc1cc2c(cc1OC)C(=O)C(F)(CC1CCN(CC3CCCCC3)CC1)C2 (stereo not drawn) [Example 6, 1-(-Cyclohexylmethyl-4-[(5,6-dimethoxy-2-flouro-1-indanon)-2-yl]methylpiperidine Hydrochloride] | – | 1.7 nM
COc1cc2c(cc1OC)C(=O)C(F)(CC1CCN(Cc3cccc([N+](=O)[O-])c3)CC1)C2 (stereo not drawn) [Example 11, 4-[(5,6-Dimethoxy-2-flouro-1-indanon)-2-yl]methyl-1-(3-nitrobenzyl)piperidine Hydrochloride] | – | 0.7 nM
COc1ccc2c(c1)CC(F)(CC1CCN(Cc3ccccc3)CC1)C2=O (stereo not drawn) [Example 12, 1-Benzyl-4-[(5-methoxy-2-flouro-1-indanon)-2-yl]methylpiperidine Hydrochloride] | – | 1.2 nM
COc1cc2c(cc1OC)C(=O)C(F)(CCCC1CCN(Cc3ccccc3)CC1)C2 (stereo not drawn) [Example 14, 1-Benzyl-4-[3-[5,6-dimethoxy-2-flouro-1-indanon)-2-yl]propyl]piperidine Hydrochloride] | – | 1.4 nM
COc1cc2c(cc1OC)C(=O)C(F)(CC1CCN(Cc3ccc(O)cc3)CC1)C2 (stereo not drawn) [Example 15, 4-[(5,6-Dimethoxy-2-flouro-1-indanon)-2-yl]methyl-1-(4-hydroxybenzyl)piperidine Hydrochloride] | – | 0.32 nM
CCCOc1cc2c(cc1OCCC)C(=O)C(F)(CC1CCN(Cc3ccccc3)CC1)C2 (stereo not drawn) [Example 17, 1-Benzyl-4-[[[5,6-di-(1-propyloxy)]-2-flouro-1-indanon-2-yl]methylpiperidine Hydrochloride] | – | 0.89 nM
